ChEMBL document CHEMBL5104198, “Probing Factor Xa Protein-Ligand Interactions: Accurate Free Energy Calculations and Experimental Validations of Two Series of High-Affinity Ligands” (J Med Chem, 2022)

How the values were obtained:
Coagulation factor X [1] = target: T1, Coagulation factor X (Homo sapiens, UniProt P00742); assay: Inhibition of human fXa assessed as inhibition constant using Cbz-D-Arg-Gly-L-Arg-pNA as substrate preincubated for 30 mins followed by substrate addition and measured after 60 mins by […] method
T1 sequence (P00742 41-179 limits assumed): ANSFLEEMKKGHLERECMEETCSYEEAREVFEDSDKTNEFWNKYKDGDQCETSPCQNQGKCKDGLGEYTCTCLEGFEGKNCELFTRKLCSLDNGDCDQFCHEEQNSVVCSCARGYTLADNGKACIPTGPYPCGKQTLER
T1 sequence (P00742 235-488 limits assumed): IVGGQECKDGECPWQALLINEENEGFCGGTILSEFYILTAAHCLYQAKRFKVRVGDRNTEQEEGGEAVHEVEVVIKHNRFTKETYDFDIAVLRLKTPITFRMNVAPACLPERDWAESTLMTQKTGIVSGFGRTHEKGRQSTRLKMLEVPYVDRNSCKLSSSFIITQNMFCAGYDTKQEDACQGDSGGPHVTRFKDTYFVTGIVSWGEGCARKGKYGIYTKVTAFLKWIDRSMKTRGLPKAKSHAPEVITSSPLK

Coagulation factor X [2] = target: T1, Coagulation factor X; assay: Inhibition of human fXa at 100 uM using Cbz-D-Arg-Gly-L-Arg-pNA as substrate preincubated for 30 mins followed by substrate addition and measured after 60 mins by […] method relative to control; conditions: time 90.0 min

| Ki (Coagulation factor X [1]) [nM] | inhibition (Coagulation factor X [2]) [%] | Structure (SMILES) |
| --- | --- | --- |
| 1240 | – | CC(C)N1CCC(NC(=O)c2ccn(Cc3cc(-c4ccc(Cl)s4)on3)c2)CC1 |
| 49 | – | C#Cc1ccc(NC(=O)Cn2c(C(=O)NC3CCN(C(C)C)CC3)cc3ccccc32)cc1 |
| 4 | – | CC(C)N1CCC(NC(=O)c2cc3cccnc3n2Cc2cc(-c3ccc(Cl)s3)on2)CC1 |
| 6 | – | CC(C)N1CCC(NC(=O)c2nc3ccccc3n2CC(=O)Nc2ccc(Cl)cc2)CC1 |
| 204 | – | CC(C)N1CCC(NC(=O)c2ccn(CC(=O)Nc3ccc(Cl)cc3)n2)CC1 |
| 52 | – | CC(C)N1CCC(NC(=O)c2ccnn2Cc2cc(-c3ccc(Cl)s3)on2)CC1 |
| 188 | – | CC(C)N1CCC(NC(=O)c2cc3ccccc3n2Cc2cc(-c3ccc(I)s3)on2)CC1 |
| 57 | – | CC(C)N1CCC(NC(=O)c2cccn2Cc2cc(-c3ccc(Cl)s3)on2)CC1 |
| 51 | – | CC(C)N1CCC(NC(=O)c2cccn2CC(=O)Nc2ccc(Cl)cc2)CC1 |
| 56 | – | Cc1ccc(NC(=O)Cn2c(C(=O)NC3CCN(C(C)C)CC3)cc3ccccc32)cc1 |
| 8 | – | CC(C)N1CCC(NC(=O)c2c3ccccc3nn2Cc2cc(-c3ccc(Cl)s3)on2)CC1 |
| 2930 | – | CC(C)N1CCC(NC(=O)c2cn(CC(=O)Nc3ccc(Cl)cc3)c3ncccc23)CC1 |
| 12 | – | CC(C)N1CCC(NC(=O)c2cc3ccccc3n2Cc2cc(-c3ccc(Br)s3)on2)CC1 |
| 37 | – | CC(C)N1CCC(NC(=O)c2ccn(Cc3cc(-c4ccc(Cl)s4)on3)n2)CC1 |

Further lines, the compound ahead of its results:

| Structure (SMILES) | Ki (Coagulation factor X [1]) [nM] | inhibition (Coagulation factor X [2]) [%] |
| --- | --- | --- |
| CC(C)N1CCC(NC(=O)c2cn(CC(=O)Nc3ccc(Cl)cc3)c3ccccc23)CC1 | 5120 | – |
| CC(C)N1CCC(NC(=O)c2cc3ccccc3n2Cc2cc(-c3cccs3)on2)CC1 | 162 | – |
| C#Cc1ccc(-c2cc(Cn3c(C(=O)NC4CCN(C(C)C)CC4)cc4ccccc43)no2)s1 | 13 | – |
| CC(C)N1CCC(NC(=O)c2nc3ccccc3n2Cc2cc(-c3ccc(Cl)s3)on2)CC1 | 0.5 | – |
| Cc1ccc(-c2cc(Cn3c(C(=O)NC4CCN(C(C)C)CC4)cc4ccccc43)no2)s1 | 55 | – |
| CC(C)N1CCC(NC(=O)c2nn(CC(=O)Nc3ccc(Cl)cc3)c3ccccc23)CC1 | 1740 | – |
| CC(C)N1CCC(NC(=O)c2cc3ccccc3n2CC(=O)Nc2ccccc2)CC1 | 204 | – |
| CC(C)N1CCC(NC(=O)c2ccn(CC(=O)Nc3ccc(Cl)cc3)c2)CC1 | – | 66 |
| CC(C)N1CCC(NC(=O)c2cn(Cc3cc(-c4ccc(Cl)s4)on3)c3ncccc23)CC1 | 65 | – |
| CC(C)N1CCC(NC(=O)c2nn(Cc3cc(-c4ccc(Cl)s4)on3)c3ccccc23)CC1 | 9 | – |
| CC(C)N1CCC(NC(=O)c2cn(CC(=O)Nc3ccc(Cl)cc3)cn2)CC1 | 20500 | – |
| CC(C)N1CCC(NC(=O)c2cc3cccnc3n2CC(=O)Nc2ccc(Cl)cc2)CC1 | 11 | – |
| CC(C)N1CCC(NC(=O)c2cc3ccccc3n2Cc2cc(-c3ccc(F)s3)on2)CC1 | 70 | – |
| CC(C)N1CCC(NC(=O)c2cn(Cc3cc(-c4ccc(Cl)s4)on3)cn2)CC1 | 14800 | – |
| CC(C)N1CCC(NC(=O)c2cc3ccccc3n2CC(=O)Nc2ccc(F)cc2)CC1 | 63 | – |
| CC(C)N1CCC(NC(=O)c2cc3ccccc3n2CC(=O)Nc2ccc(I)cc2)CC1 | 7 | – |
| CC(C)N1CCC(NC(=O)c2cn(Cc3cc(-c4ccc(Cl)s4)on3)c3ccccc23)CC1 | 241 | – |
